{"source": "patent US7824872B2", "about": "“Pharmaceutical agents” (Theravalues Corporation, priority 2003, dated 2010)", "type_in_all_cases": "cell-based", "key": {"PCI-43 cells [1]": {"test_system": "PCI-43 cells", "assay": "Number of live cells after 48 hours of treatment with anticancer agents (IC50)", "details": "concentration halving the number of live cells", "protocol": "(§1) The sensitivity of solid cancer cells to anticancer agents under low and normal oxygen partial pressures was investigated. Three types of solid pancreatic cancer cell lines (PCI-35 cells, KMP-4 cells, and PCI-43 cells) were used as the cells. For each type of cell, 2×10^3 cells were cultured for six hours in the presence of 50 μg/mL of cisplatin under low oxygen partial pressure (1% oxygen, 5% carbondioxide; hereinafter, the same values in the Examples) or normal oxygen partial pressure (20% oxygen, 5% carbondioxide; hereinafter, the same values in the Examples). After culturing, the cells were washed twice with physiological phosphate buffer (pH7.4) to prepare samples. Dulbecco's Modified Eagle's Medium/F12 was used as the medium for culturing (hereinafter, unless particularly specified, use of the same medium is assumed).\nUsing gemcitabine, adriamycin, and cisplatin, and using PCI-43 cells, measurements were made as in Example 1. The concentrations of gemcitabine and adriamycin were 0.1 to 1 μmol and 0.1 to 5 μmol, respectively. IC50 values were calculated from the measured results, as shown below.\nThe number of live cells was determined after 48 hours of treatment with various concentrations of anticancer agents, and the concentrations of anticancer agents needed to half the number of live cells present when the various anticancer agents were not added were defined as IC50 values."}, "PCI-43 cells [2]": {"test_system": "PCI-43 cells", "assay": "FACS analysis of apoptosis (PI / anti-anexin V staining) under hypoxia and normoxia", "details": "50 μg/mL cisplatin, 12 and 24 hours", "protocol": "as §1\n(§2) The cells described above were stained with propidium iodide (PI) and FITC-conjugated anti-anexin V, and FACS analysis was performed using FACS calibur (Becton Dickinson).\nIn FIG. 1, “Normoxia” means under normal oxygen partial pressure, and “Hypoxia” means under low oxygen partial pressure (the same hereinafter). […]\nPCI-43 cells were cultured for up to 24 hours under the same conditions as in Example 1. Samples obtained before culturing, and after culturing for 12 hours and 24 hours were analyzed as in Example 1. […]"}, "[3]": {"test_system": "PCI-35 cells, KMP-4 cells, and PCI-43 cells", "assay": "FACS analysis of apoptosis (PI / anti-anexin V staining) under hypoxia and normoxia, three pancreatic cancer cell lines", "details": "50 μg/mL cisplatin, six hours, PCI-35, KMP-4 and PCI-43 cells", "protocol": "as §1, §2\nIn FIG. 1, “Normoxia” means under normal oxygen partial pressure, and “Hypoxia” means under low oxygen partial pressure (the same hereinafter). The FACS analyses in the Examples can be described as staining of cells with PI and anti-anexin V, and sorting of cells based on the intensity of staining to show distributions such as those in FIG. 1. […]"}, "Pim-1": {"test_system": "Pim-1", "assay": "Western blotting of Pim-1 in cells cultured with a proteasome inhibitor", "details": "PCI-43 cells, normoxia, 50 μM ALLN, 6 and 12 hours", "protocol": "The cells used were HCT116 (colon cancer cell line), HePG2 (liver cancer cell line), KMP-4 (pancreatic cancer cell line), PCI-10 (pancreatic cancer cell line), PCI-35 (pancreatic cancer cell line), and PCI-43 (pancreatic cancer cell line). Each type of cell was cultured for 16 hours under hypoxia (1% oxygen, 5% carbondioxide), or normoxia (20% oxygen, 5% carbondioxide). RNA was extracted from the cultured cells using Trizol reagent, and proteins were extracted from the cultured cells using 1% NP-40 lysis buffer ([…] pH7.5, […], 2 μM EDTA, 1 μM EGTA, 50 μM NaF, 1 μM Na3VO4, 1 mM PMSF).\nProteins were detected by Western blotting. More specifically, the above-mentioned samples were electrophoresed through 12% polyacrylamide gels, and then blotted onto nitrocellulose membranes. The membranes were blocked with blocking buffer (5% skim milk, in physiological Tween-phosphate buffer), reacted with anti-Pim-1 antibody for one hour, then incubated with peroxidase-conjugated goat anti-mouse IgG secondary antibody, and detected using an ECL detection kit (Amersham).\nWhether or not Pim-1 is degraded by proteases under normoxia was investigated. PCI-43 cells were cultured under hypoxia and normoxia. Cells cultured under hypoxia were sampled before culturing, and after culturing for 4, 12, and 24 hours. […]"}, "[4]": {"details": "hypoxia (1% oxygen, 5% carbondioxide), read-out: IC50 (μM), Hypoxia"}, "[5]": {"details": "normoxia (20% oxygen, 5% carbondioxide), read-out: IC50 (μM), Normoxia"}}, "note": "Where two headings read alike, the source gives them in different places. Where a SMILES comes first, the peptide text is derived from it. [ ]: non-standard residue; d: D form. Nle = CCCC[C@H](N)C(=O)O"}
{"compound": "N.N.[Cl][Pt][Cl]", "note": "[Cisplatin, cisplatin]", "values": [{"measurement": "IC50", "setting": "PCI-43 cells [1]; [4]", "value": 27.7, "unit": "µM"}, {"measurement": "IC50", "setting": "PCI-43 cells [1]; [5]", "value": 18.6, "unit": "µM"}, {"measurement": "proportion of apoptotic cells under hypoxia compared with normoxia", "setting": "PCI-43 cells [2]", "value": "approximately half that under normoxia"}, {"measurement": "induction of apoptosis under normoxia compared with hypoxia", "setting": "[3]", "value": "approximately twice that under hypoxia"}]}
{"compound": "CCCC[C@@H](C=O)NC(=O)[C@H](CC(C)C)NC(=O)[C@H](CC(C)C)NC(C)=O", "note": "[ALLN, N-acetyl-L-leucinyl-L-leucinyl-L-norleucinal] (Ac-Leu-Leu-[Nle]-aldehyde)", "values": [{"measurement": "amount of Pim-1 (Western blotting)", "setting": "Pim-1", "value": "the amount of Pim-1 also increased with time under normoxia"}]}
{"compound": "COc1cccc2c1C(=O)c1c(O)c3c(c(O)c1C2=O)C[C@@](O)(C(=O)CO)C[C@@H]3O[C@H]1C[C@H](N)[C@H](O)[C@H](C)O1", "note": "[Adriamycin, adriamycin]", "values": [{"measurement": "IC50", "setting": "PCI-43 cells [1]; [4]", "value": 1.9, "unit": "µM"}, {"measurement": "IC50", "setting": "PCI-43 cells [1]; [5]", "value": 0.3, "unit": "µM"}]}
{"compound": "Nc1ccn([C@@H]2O[C@H](CO)[C@@H](O)C2(F)F)c(=O)n1", "note": "[Gemcitabine, gemcitabine]", "values": [{"measurement": "IC50", "setting": "PCI-43 cells [1]; [4]", "value": 1.56, "unit": "µM"}, {"measurement": "IC50", "setting": "PCI-43 cells [1]; [5]", "value": 0.272, "unit": "µM"}]}
